Results reported in the supplement of paper PMC11061612.

Assays:
[1] = system: B-CPAP (Thyroid Gland Carcinoma); assay: Bliss excess, mean over the matrix (fraction); higher = more synergy
Method in brief: (§1)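 Cell lines grown in DMEM/F12 or RPMI with 10% FBS were plated in 1536-well plates and held 24 hours at 37°C, 5% CO2 before 72 hours of exposure to two-drug dose matrices, with DMSO typically at 0.2%. CellTiter-Glo 2.0 luminescence gave viability, which was converted to inhibition. Vehicle wells were set to 0 and blank wells to 1. Combination Emax is the second-highest inhibition in the matrix, and Bliss excess is the observed combination effect minus the expected EA + EB − EA·EB, where EA and EB are the single-agent effects.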

[2] = system: Calu-3 (Lung Adenocarcinoma); assay: as above
Method in brief: as §1

[3] = system: Daoy (Other Solid Carcinomas); assay: as above
Method in brief: as §1

[4] = system: HuP-T4 (Pancreatic Carcinoma); assay: as above
Method in brief: as §1

[5] = system: KELLY (Neuroblastoma); assay: as above
Method in brief: as §1

[6] = system: NOS-1 (Osteosarcoma); assay: as above
Method in brief: as §1

[7] = system: Calu-3 (Lung Adenocarcinoma); assay: combination Emax (second highest fraction inhibited in the dose matrix, 72 h); higher = more inhibition; extreme values may be limits of the assay
Method in brief: as §1

[8] = system: DoTc2-4510 (Cervical Carcinoma); assay: as above
Method in brief: as §1

[9] = system: HCC-78 (Lung Adenocarcinoma); assay: as above
Method in brief: as §1

[10] = system: HCC1806 (Breast Carcinoma); assay: as above
Method in brief: as §1

[11] = system: HOS (Osteosarcoma); assay: as above
Method in brief: as §1

[12] = system: KELLY (Neuroblastoma); assay: as above
Method in brief: as §1

[13] = system: KYSE-520 (Esophageal Squamous Cell Carcinoma); assay: as above
Method in brief: as §1

[14] = system: LB831-BLC (Bladder Carcinoma); assay: as above
Method in brief: as §1

[15] = system: MDA-MB-361 (Breast Carcinoma); assay: as above
Method in brief: as §1

[16] = system: ME-1 (Acute Myeloid Leukemia); assay: as above
Method in brief: as §1

[17] = system: MFE-296 (Endometrial Carcinoma); assay: as above
Method in brief: as §1

[18] = system: NOS-1 (Osteosarcoma); assay: as above
Method in brief: as §1

[19] = system: SK-ES-1 (Ewing's Sarcoma); assay: as above
Method in brief: as §1

[20] = system: TE-9 (Esophageal Squamous Cell Carcinoma); assay: as above
Method in brief: as §1
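Wherever Bliss excess, mean over the matrix is given: after 72 h of two-drug dosing.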

Compound	Bliss excess [1]	Bliss excess [2]	Bliss excess [3]	Bliss excess [4]	Bliss excess [5]	Bliss excess [6]	combination Emax [7]	combination Emax [8]	combination Emax [9]	combination Emax [10]	combination Emax [11]	combination Emax [12]	combination Emax [13]	combination Emax [14]	combination Emax [15]	combination Emax [16]	combination Emax [17]	combination Emax [18]	combination Emax [19]	combination Emax [20]
CCN(CCO)CCCOc1ccc2c(Nc3cc(CC(=O)Nc4cccc(F)c4)[nH]n3)ncnc2c1 [AZD2811] + C=CCn1c(=O)c2cnc(Nc3ccc(N4CCN(C)CC4)cc3)nc2n1-c1cccc(C(C)(C)O)n1 [AZD1775] (first compound max 1 µM, partner max 1 µM)	-0.0363	-0.0306	0.026	0.0274	0.0569	0.0045	0.0931	0.534	0.327	0.867	0.298	1	0.306	0.456	0.801	0.299	0.152	0.244	0.971	0.207
CCN(CCO)CCCOc1ccc2c(Nc3cc(CC(=O)Nc4cccc(F)c4)[nH]n3)ncnc2c1 [AZD2811] + C[C@@H]1COCCN1C2=NC(=NC(=C2)C3(CC3)[S@](=N)(=O)C)C4=C5C=CNC5=NC=C4 [AZD6738] (first compound max 1 µM, 7x7, partner max 10 µM)	-0.0276	-0.0169	-0.0153	0.0305	-0.042	0.0036	0.217	0.675	0.595	0.931	0.652	0.992	0.558	0.238	0.815	0.516	0.405	0.288	0.968	0.278
CCN(CCO)CCCOc1ccc2c(Nc3cc(CC(=O)Nc4cccc(F)c4)[nH]n3)ncnc2c1 [AZD2811] + O=C(c1cc(Cc2n[nH]c(=O)c3ccccc23)ccc1F)N1CCN(C(=O)C2CC2)CC1 [Olaparib] (first compound max 1 µM, 7x7, partner max 10 µM)	0.0104	0.0047	0.0678	-0.0055	-0.0359	0.0085	0.153	0.297	0.206	0.265	0.0874	0.788	0.21	0.268	0.27	0.394	0.211	0.22	0.954	0.155
CN(CCO)CC[C@H](CSc1ccccc1)Nc1ccc(S(=O)(=O)NC(=O)c2ccc(N3CCC([C@@H](O)c4ccccc4-c4ccc(Cl)cc4)CC3)cc2)cc1S(=O)(=O)C(F)(F)F [AZD4320] + C1CN(CCC1(C(=O)N[C@@H](CCO)C2=CC=C(C=C2)Cl)N)C3=NC=NC4=C3C=CN4 [Capivasertib] (first compound max 1 µM, 7x7, partner max 3 µM)	-0.0377	-0.0149	0.0185	-0.0353	-0.0433	-0.0386	0.124	0.59	0.31	0.212	0.229	0.229	0.329	0.338	0.341	1	0.388	0.475	0.94	0.356
CN(CCO)CC[C@H](CSc1ccccc1)Nc1ccc(S(=O)(=O)NC(=O)c2ccc(N3CCC([C@@H](O)c4ccccc4-c4ccc(Cl)cc4)CC3)cc2)cc1S(=O)(=O)C(F)(F)F [AZD4320] + C=CCn1c(=O)c2cnc(Nc3ccc(N4CCN(C)CC4)cc3)nc2n1-c1cccc(C(C)(C)O)n1 [AZD1775] (first compound max 1 µM, partner max 1 µM)	0.0808	0.014	-0.0261	-0.0368	0.0505	0.0894	0.182	0.884	0.232	0.972	0.379	1	0.552	0.634	0.918	1	0.273	0.992	1	0.34
CN(CCO)CC[C@H](CSc1ccccc1)Nc1ccc(S(=O)(=O)NC(=O)c2ccc(N3CCC([C@@H](O)c4ccccc4-c4ccc(Cl)cc4)CC3)cc2)cc1S(=O)(=O)C(F)(F)F [AZD4320] + CCN(CCO)CCCOc1ccc2c(Nc3cc(CC(=O)Nc4cccc(F)c4)[nH]n3)ncnc2c1 [AZD2811] (first compound max 1 µM, 7x7, partner max 1 µM)	0.0126	-0.0142	0.0245	-0.0427	0.051	0.0616	0.168	0.735	0.2	0.201	0.12	0.892	0.292	0.526	0.679	1	0.11	0.667	1	0.451
CN(CCO)CC[C@H](CSc1ccccc1)Nc1ccc(S(=O)(=O)NC(=O)c2ccc(N3CCC([C@@H](O)c4ccccc4-c4ccc(Cl)cc4)CC3)cc2)cc1S(=O)(=O)C(F)(F)F [AZD4320] + CN(C)CCCOc1ccc(-c2ccc3ncc4c(c3c2)n(C2CCOCC2)c(=O)n4C)cn1 [AZD0156] (first compound max 1 µM, 7x7, partner max 1 µM)	-0.0065	-0.0153	0.0118	-0.0268	0.077	0.0203	0.117	0.6	0.147	0.133	0.0916	0.597	0.157	0.286	0.205	1	0.0842	0.611	0.899	0.263
CN(CCO)CC[C@H](CSc1ccccc1)Nc1ccc(S(=O)(=O)NC(=O)c2ccc(N3CCC([C@@H](O)c4ccccc4-c4ccc(Cl)cc4)CC3)cc2)cc1S(=O)(=O)C(F)(F)F [AZD4320] + C[C@@H]1COCCN1C2=NC(=NC(=C2)C3(CC3)[S@](=N)(=O)C)C4=C5C=CNC5=NC=C4 [AZD6738] (first compound max 1 µM, 7x7, partner max 10 µM)	-0.0422	-0.006	0.0178	0.0013	0.033	0.038	0.284	0.912	0.637	0.972	0.722	0.982	0.672	0.381	0.918	1	0.559	0.914	1	0.372
CN(CCO)CC[C@H](CSc1ccccc1)Nc1ccc(S(=O)(=O)NC(=O)c2ccc(N3CCC([C@@H](O)c4ccccc4-c4ccc(Cl)cc4)CC3)cc2)cc1S(=O)(=O)C(F)(F)F [AZD4320] + C[C@@H](Nc1cc(F)cc(F)c1)c1cc(C(=O)N(C)C)cc2c(=O)cc(N3CCOCC3)oc12 [AZD8186] (first compound max 1 µM, 7x7, partner max 3 µM)	0.0064	0.002	-0.0261	0.0664	0.029	-0.0096	0.242	0.911	0.528	0.696	0.37	0.7	0.34	0.532	0.672	1	0.306	0.748	0.987	0.312
CN(CCO)CC[C@H](CSc1ccccc1)Nc1ccc(S(=O)(=O)NC(=O)c2ccc(N3CCC([C@@H](O)c4ccccc4-c4ccc(Cl)cc4)CC3)cc2)cc1S(=O)(=O)C(F)(F)F [AZD4320] + Cc1cc2ncnn2cc1Nc1ncc2c(n1)n(C1CCOCC1)c(=O)n2C [AZD7648] (first compound max 1 µM, 7x7, partner max 10 µM)	-0.0275	-0.0547	-0.042	-0.0439	0.0306	0.0375	0.182	0.499	0.175	0.0765	0.134	0.493	0.23	0.214	0.459	1	0.124	0.753	0.911	0.246
CN(CCO)CC[C@H](CSc1ccccc1)Nc1ccc(S(=O)(=O)NC(=O)c2ccc(N3CCC([C@@H](O)c4ccccc4-c4ccc(Cl)cc4)CC3)cc2)cc1S(=O)(=O)C(F)(F)F [AZD4320] + Cn1cnc2c(F)c(Nc3ccc(Br)cc3Cl)c(C(=O)NOCCO)cc21 [Selumetinib] (first compound max 1 µM, 7x7, partner max 3 µM)	0.0228	-0.0028	0.129	0.0393	0.0525	0.0796	0.245	0.906	0.305	0.795	0.368	0.737	0.401	0.373	0.334	1	0.396	0.69	0.983	0.438
